# According to ChEMBL document CHEMBL1128563, “Quantitative structural activity relationship study of bis-tetraazacyclic compounds. A novel series of HIV-1 and HIV-2 inhibitors” (J Med Chem, 1995):
# Experiments:
# [1] = test system: HuT78; test: Cellular cytotoxicity against HUT-78 cells.; type: functional; settings: Homo sapiens
# [2] = test system: Human immunodeficiency virus 1; test: Antiretroviral activity against HIV-1 infected HUT-78 cells.; type: functional, organism-based; settings: Human immunodeficiency virus 1, HuT78; read-out: Log 1/EC50 (converted)
# [3] = test system: Human immunodeficiency virus 2; test: Antiretroviral activity against HIV-2 infected HUT-78 cells.; settings: Human immunodeficiency virus 2, HuT78; read-out: Log 1/EC50 (converted)
# [4] = test system: Human immunodeficiency virus 1; test: Inhibition of syncytium formation using HIV-1 IIIB strain gaint cell inhibition assay.; type: functional, organism-based; settings: read-out: Log 1/EC50 (converted)
Structure (SMILES),EC50 [2] [nM],EC50 [3] [nM],EC50 [4] [nM],CC50 [1] [nM]
NCCCNCCNCCCNCc1ccc(CN2CCCNCCNCCCNCC2)cc1,372,708,–,445000
c1cc(CN2CCCNCCNCCCNCC2)ccc1CN1CCCNCCNCCNCCC1,7.94,56.2,12.6,500000
c1cc(CN2CCCNCCCNCCCNCCC2)ccc1CN1CCCNCCCNCCCNCCC1,9120,–,–,49000
c1cc(CN2CCNCCCNCCNCC2)ccc1CN1CCNCCCNCCNCC1,166,234,–,216000
c1cc(CC2CNCCNCCCNCCNC2)ccc1CC1CNCCNCCCNCCNC1,501,676,–,406000
C1CNCCNCCCN[C@H]([C@@H]2CNCCCNCCNCCCN2)CNC1,158,–,–,369000
c1cc(CN2CCCNCCNCCCNCC2)cc(CN2CCCNCCNCCCNCC2)c1,33.9,41.7,4170,422000
c1ccc2c(CN3CCCNCCNCCCNCC3)cc(CN3CCCNCCNCCCNCC3)cc2c1,158,79.4,–,208000
C1CNCCNCCCN(CCCN2CCCNCCNCCCNCC2)CCNC1,138,–,12300,622000
c1cc(CN2CCCNCCNCCNCCC2)ccc1CN1CCCNCCCNCCCNCCC1,316,–,–,121000
Clc1c(Cl)c(CN2CCCNCCNCCCNCC2)c(Cl)c(CN2CCCNCCNCCCNCC2)c1Cl,200,2.51,6030,12000
O=[N+]([O-])c1cc(CN2CCCNCCNCCCNCC2)ccc1CN1CCCNCCNCCCNCC1,64.6,72.4,3240,203000
c1cc(CN2CCCNCCNCCCNCC2)ccc1CN1CCCNCCCNCCCNCC1,–,–,–,225000
O=[N+]([O-])c1cc(CN2CCCNCCNCCCNCC2)cc(CN2CCCNCCNCCCNCC2)c1,40.7,56.2,64.6,45000
c1cc(CN2CCCNCCCNCCNCCC2)cc(CN2CCCNCCNCCCNCC2)c1,85.1,759,–,422000
c1cc(CN2CCNCCCNCCNCC2)cc(CN2CCNCCCNCCNCC2)c1,40.7,61.7,–,192000
Fc1c(CN2CCCNCCNCCCNCC2)cccc1CN1CCCNCCNCCCNCC1,34.7,74.1,–,202000
c1cc(CN2CCCNCCNCCCNCC2)ccc1CN1CCCNCCNCCCNCC1 [PLERIXAFOR],3.98,6.03,47.9,241000

# Second part, led by results:
EC50 [2] [nM],EC50 [3] [nM],EC50 [4] [nM],Structure (SMILES),CC50 [1] [nM]
1350,–,–,c1ccc(CN2CCCNCCNCCCNCC2)c(CN2CCCNCCNCCCNCC2)c1,169000
398,–,–,c1cc(CCCN2CCCNCCNCCCNCC2)ccc1CCCN1CCCNCCNCCCNCC1,283000
7.59,1.29,33.1,Cc1cc(CN2CCCNCCNCCCNCC2)c(C)cc1CN1CCCNCCNCCCNCC1,250000
7.08,7.94,13.2,COc1cc(CN2CCCNCCNCCCNCC2)c(OC)cc1CN1CCCNCCNCCCNCC1,250000
7760,–,33900,CCN1CCCN(CC)CCN(Cc2ccc(CN3CCCN(CC)CCN(CC)CCCN(CC)CC3)cc2)CCCN(CC)CC1,342000
324,646,–,c1cc(CN2CCCNCCCNCCNCCC2)cc(CN2CCCNCCCNCCNCCC2)c1,403000
85.1,53.7,–,Brc1cc(CN2CCCNCCNCCCNCC2)cc(CN2CCCNCCNCCCNCC2)c1,192000
692,708,–,C(CCCN1CCCNCCNCCCNCC1)CCN1CCCNCCNCCCNCC1,307000
2750,–,–,c1cc(CN2CCCNCCCNCCCNCC2)cc(CN2CCCNCCCNCCCNCC2)c1,191000
31.6,70.8,–,c1ncc(CN2CCCNCCNCCCNCC2)cc1CN1CCCNCCNCCCNCC1,395000
204,24.5,316,c1ccc(-c2cc(CN3CCCNCCNCCCNCC3)cc(CN3CCCNCCNCCCNCC3)c2)cc1,198000
97.7,66.1,8130,c1cc(CN2CCCNCCNCCCNCC2)nc(CN2CCCNCCNCCCNCC2)c1,409000
10.7,2.45,331,Clc1cc(CN2CCCNCCNCCCNCC2)c(Cl)cc1CN1CCCNCCNCCCNCC1,59000
16600,–,–,c1cc(CN2CCCNCCCNCCCNCCC2)cc(CN2CCCNCCCNCCCNCCC2)c1,193000
7.94,7.94,31.6,Fc1c(F)c(CN2CCCNCCNCCCNCC2)c(F)c(F)c1CN1CCCNCCNCCCNCC1,48000
25.1,58.9,–,c1cc(CN2CCCNCCNCCNCCC2)ccc1CN1CCCNCCNCCNCCC1,500000
11200,–,–,C1CNCCNCCCN(CCN2CCCNCCNCCCNCC2)CCNC1,404000
55,38.9,63.1,c1ccc2c(CN3CCCNCCNCCCNCC3)ccc(CN3CCCNCCNCCCNCC3)c2c1,56000
138,245,–,Brc1c(CN2CCCNCCNCCCNCC2)cccc1CN1CCCNCCNCCCNCC1,144000
